In PubChem BioAssay AID1918933 (Molecular Pharmacology Branch, DTP, NCI, 2023):

System: 186277-243-T-J2-PDC complex spheroid viability
Assay: Anticancer human tumor 186277-243-T-J2-PDC patient-derived colon adenocarcinoma cell line growth inhibition
Conditions: for IC50: curve of first compound; for viability, T/C: stronger effect = lower value
Method in brief: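 Drug combinations with the LSD1 inhibitor iadademstat tested on tumor cells co-cultured as spheroids with endothelial cells and mesenchymal stem cells. Concentrations descended in half-log increments from clinical Cmax or 10 microM.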
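Further: 7 day exposure to compounds.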
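Wherever viability, T/C is given: 100% = DMSO vehicle control viability.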

CC(C)CC(NC(=O)C(Cc1ccccc1)NC(=O)c1cnccn1)B(O)O (stereo not given) + NC1CCC(NC2CC2c2ccccc2)CC1
IC50 (second compound 0.1 µM): 3.72 nM | IC50 (second compound 0.316 µM): 3.94 nM | IC50 (second compound 1 µM): 3.67 nM | IC50 (second compound 3.16 µM): 4.54 nM | IC50 (second compound 10 µM): 3.95 nM | viability, T/C (second compound 0.1 µM, first compound 0.000316 µM): 103% | viability, T/C (second compound 0.1 µM, first compound 0.001 µM): 107% | viability, T/C (second compound 0.1 µM, first compound 0.00316 µM): 58.1% | viability, T/C (second compound 0.1 µM, first compound 0.01 µM): 0.46% | viability, T/C (second compound 0.1 µM, first compound 0.0316 µM): 0.13% | viability, T/C (second compound 0.1 µM, first compound 0.1 µM): 0.28% | viability, T/C (second compound 0.316 µM, first compound 0.000316 µM): 113% | viability, T/C (second compound 0.316 µM, first compound 0.001 µM): 107% | viability, T/C (second compound 0.316 µM, first compound 0.00316 µM): 61.5% | viability, T/C (second compound 0.316 µM, first compound 0.01 µM): 0.8% | viability, T/C (second compound 0.316 µM, first compound 0.0316 µM): 0.31% | viability, T/C (second compound 0.316 µM, first compound 0.1 µM): 0.65% | viability, T/C (second compound 1 µM, first compound 0.000316 µM): 111% | viability, T/C (second compound 1 µM, first compound 0.001 µM): 107% | viability, T/C (second compound 1 µM, first compound 0.00316 µM): 57.4% | viability, T/C (second compound 1 µM, first compound 0.01 µM): 0.43% | viability, T/C (second compound 1 µM, first compound 0.0316 µM): 0.44% | viability, T/C (second compound 1 µM, first compound 0.1 µM): 0.16% | viability, T/C (second compound 3.16 µM, first compound 0.000316 µM): 107% | viability, T/C (second compound 3.16 µM, first compound 0.001 µM): 124% | viability, T/C (second compound 3.16 µM, first compound 0.00316 µM): 72.7% | viability, T/C (second compound 3.16 µM, first compound 0.01 µM): 0.98% | viability, T/C (second compound 3.16 µM, first compound 0.0316 µM): 0.25% | viability, T/C (second compound 3.16 µM, first compound 0.1 µM): 0.11% | viability, T/C (second compound 10 µM, first compound 0.000316 µM): 111% | viability, T/C (second compound 10 µM, first compound 0.001 µM): 98.5% | viability, T/C (second compound 10 µM, first compound 0.00316 µM): 62% | viability, T/C (second compound 10 µM, first compound 0.01 µM): 0.43% | viability, T/C (second compound 10 µM, first compound 0.0316 µM): 0.16% | viability, T/C (second compound 10 µM, first compound 0.1 µM): 0.43%

CCc1c2c(nc3ccc(O)cc13)-c1cc3c(c(=O)n1C2)COC(=O)[C@]3(O)CC + NC1CCC(NC2CC2c2ccccc2)CC1
IC50 (second compound 0.1 µM): 2.11 nM | IC50 (second compound 0.316 µM): 2.07 nM | IC50 (second compound 1 µM): 2.69 nM | IC50 (second compound 3.16 µM): 3.63 nM | IC50 (second compound 10 µM): 2.87 nM | viability, T/C (second compound 0.1 µM, first compound 0.000949 µM): 63% | viability, T/C (second compound 0.1 µM, first compound 0.003 µM): 40.7% | viability, T/C (second compound 0.1 µM, first compound 0.00949 µM): 33.6% | viability, T/C (second compound 0.1 µM, first compound 0.03 µM): 17.5% | viability, T/C (second compound 0.1 µM, first compound 0.0949 µM): 1.51% | viability, T/C (second compound 0.1 µM, first compound 0.3 µM): 0.43% | viability, T/C (second compound 0.316 µM, first compound 0.000949 µM): 62.7% | viability, T/C (second compound 0.316 µM, first compound 0.003 µM): 42.2% | viability, T/C (second compound 0.316 µM, first compound 0.00949 µM): 30.1% | viability, T/C (second compound 0.316 µM, first compound 0.03 µM): 19.3% | viability, T/C (second compound 0.316 µM, first compound 0.0949 µM): 1.53% | viability, T/C (second compound 0.316 µM, first compound 0.3 µM): 0.53% | viability, T/C (second compound 1 µM, first compound 0.000949 µM): 65.7% | viability, T/C (second compound 1 µM, first compound 0.003 µM): 43.1% | viability, T/C (second compound 1 µM, first compound 0.00949 µM): 38.1% | viability, T/C (second compound 1 µM, first compound 0.03 µM): 20.4% | viability, T/C (second compound 1 µM, first compound 0.0949 µM): 1.56% | viability, T/C (second compound 1 µM, first compound 0.3 µM): 0.4% | viability, T/C (second compound 3.16 µM, first compound 0.000949 µM): 71.2% | viability, T/C (second compound 3.16 µM, first compound 0.003 µM): 49.2% | viability, T/C (second compound 3.16 µM, first compound 0.00949 µM): 38.2% | viability, T/C (second compound 3.16 µM, first compound 0.03 µM): 20.8% | viability, T/C (second compound 3.16 µM, first compound 0.0949 µM): 1.23% | viability, T/C (second compound 3.16 µM, first compound 0.3 µM): 0.47% | viability, T/C (second compound 10 µM, first compound 0.000949 µM): 80.1% | viability, T/C (second compound 10 µM, first compound 0.003 µM): 44.5% | viability, T/C (second compound 10 µM, first compound 0.00949 µM): 32.6% | viability, T/C (second compound 10 µM, first compound 0.03 µM): 15.5% | viability, T/C (second compound 10 µM, first compound 0.0949 µM): 1.74% | viability, T/C (second compound 10 µM, first compound 0.3 µM): 1.75%
